The results in this text go back to patent US11261201B2 (priority 2018, dated 2022).

Assay [1] relates to A. baumannii. As to the kind of experiment: Gram negative MIC protocol (OD600, LB, 24 h). To be noted: Acinetobacter baumannii.
Method: (§1) Overnight bacterial cultures were grown in LB with no added antibiotics at 37° C. with shaking. A 1:1000 dilution of these cultures into LB was exposed to concentration gradients of compounds in 96-well plates (100 μL per well assay volume). Resulting plates were incubated at 37° C. for 24 h without shaking, and OD600 was measured at the end of the incubation. MICs were determined as the lowest concentrations at which OD600 remained at baseline.
Assay [2] concerns H37RvMA. Briefly: Tuberculosis Alamar Blue/Resazurin assay (MIC). It counts as cell-based. To be noted: Mycobacterium tuberculosis, H37RV, read-out: WT H37Rv MTB Activity.
Assay [3] has as its system E. coli. As to the kind of experiment: Gram negative MIC protocol (OD600, LB, 24 h). To be noted: Escherichia coli.
Method: as §1
Where [4] appears, read: read-out: MIC E. coli delta-TolC LB Media, E. coli delta-TolC, LB media, OD600.
Where [5] appears, read: read-out: MIC WT E. coli LB Media, WT E. coli, LB media, OD600.
Where [6] appears, read: read-out: MIC A. baumannii LB Media, A. baumannii, LB media, 24 h, OD600.
Where [7] appears, read: read-out: MIC E. coli delta-TolC LB Media, E. coli delta-TolC strain, LB media, 24 h, OD600.
Where [8] appears, read: read-out: MIC WT E. coli LB Media, wild-type E. coli, LB media, 24 h, OD600.

Each structure is given as a SMILES string. ≈ marks a conversion by molar mass, not a printed value. Where a name gives a salt, the structure may show the parent alone. Read-outs that look alike come from different tables or passages of the source.

In the case of `CC(Cc1cccc(C(F)(F)F)c1)NCc1ccccc1` (stereo not drawn) [B81], the MIC in assay [1] (read-out: MIC A. baumannii LB Media), in assay [2], in assay [3] (setting [4]) and in assay [3] (setting [5]) was over 150 µM throughout.
Consider `c1cc(CNCCC2CCCCC2)c2[nH]ccc2c1` [B352], for which the MIC in assay [1] (setting [6]) stood at 150 µM (≈ 38.5 µg/mL); in assay [2] (WT H37Rv MTB), 91 µM (≈ 23.3 µg/mL); in assay [3] (setting [7]) it was 91 µM (≈ 23.3 µg/mL); in assay [3] (setting [8]), 91 µM (≈ 23.3 µg/mL).
With `CC(CC1CCCCC1)NCc1ccccc1OCCOCCO` (stereo not drawn) [B274], the MIC in assay [1] (setting [6]) is 150 µM (≈ 50.3 µg/mL); in assay [2] (WT H37Rv MTB) it was over 150 µM; in assay [3] (setting [7]) it was 7 µM (≈ 2.35 µg/mL); in assay [3] (setting [8]), 150 µM (≈ 50.3 µg/mL).
On to `c1ccc(CNCCC2CC3CCC2C3)cc1` (stereo not drawn) [B146], for which the MIC in assay [1] (setting [6]) was 150 µM (≈ 34.4 µg/mL); in assay [2] (WT H37Rv MTB) it was over 150 µM; in assay [3] (setting [4]), 90 µM (≈ 20.6 µg/mL); in assay [3] (setting [5]), 150 µM (≈ 34.4 µg/mL).
For the molecule `Cc1cc(COc2ccccc2CNC(C)CC2CCCCC2)no1` (stereo not drawn) [B282], the MIC in assay [1] (setting [6]) was over 150 µM; in assay [2] (WT H37Rv MTB), 150 µM (≈ 51.4 µg/mL); in assay [3] (setting [7]), 3 µM (≈ 1.03 µg/mL); in assay [3] (setting [8]), over 150 µM.
In the case of `Cc1cccc(COc2ccccc2CNC(C)CC2CCCCC2)c1` (stereo not drawn) [B461, 1-cyclohexyl-N-(2-((3-methylbenzyl)oxy)benzyl)propan-2-amine], the MIC in assay [1] (setting [6]) was 33 µM (≈ 11.6 µg/mL); in assay [2] (WT H37Rv MTB), 10 µM (≈ 3.52 µg/mL); in assay [3] (setting [4]), under 1 µM; in assay [3] (setting [5]), 33 µM (≈ 11.6 µg/mL).
For the molecule `Fc1ccc2c(c1)[C@@H](NCc1ccccc1)CC2` [B208, hydrochloride], the MIC in assay [1] (setting [6]) was over 300 µM; in assay [2] (WT H37Rv MTB), over 150 µM; in assay [3] (setting [7]) it was over 300 µM; in assay [3] (setting [8]), over 300 µM.
With `O=C1CCc2ccccc2CN1CCC1CCCCC1` [B425, 2-(2-cyclohexylethyl)-1,2,4,5-tetrahydro-3H-benzo[c]azepin-3-one], the MIC was over 150 µM in assay [1] (setting [6]), over 150 µM in assay [2] (WT H37Rv MTB), 33 µM (≈ 8.96 µg/mL) in assay [3] (setting [4]) and over 150 µM in assay [3] (setting [5]).
`COCC(CC1CCCCC1)NCc1ccccc1` (stereo not drawn) [B202, N-benzyl-1-cyclohexyl-3-methoxypropan-2-amine hydrochloride]: the MIC in assay [1] (setting [6]) was over 300 µM; in assay [2] (WT H37Rv MTB), over 150 µM; in assay [3] (setting [7]), over 300 µM; in assay [3] (setting [8]), over 300 µM.
With `CC1CCC(Oc2ccccc2CNC(C)CC2CCCCC2)CC1` (stereo not drawn) [B394, 1-cyclohexyl-N-(2-((4-methylcyclohexyl)oxy)benzyl)propan-2-amine], the MIC amounted to 55 µM (≈ 18.9 µg/mL) in assay [1] (setting [6]), 20.2 µM (≈ 6.94 µg/mL) in assay [2] (WT H37Rv MTB), 3 µM (≈ 1.03 µg/mL) in assay [3] (setting [7]) and 150 µM (≈ 51.5 µg/mL) in assay [3] (setting [8]).
As for `CCOC(=O)COCCOc1ccccc1CNC(C)CC1CCCCC1` (stereo not drawn) [B365], the MIC in assay [1] (setting [6]) was over 150 µM; in assay [2] (WT H37Rv MTB), over 150 µM; in assay [3] (setting [7]) it was 5 µM (≈ 1.89 µg/mL); in assay [3] (setting [8]), over 150 µM.
As for `c1ccc(CNCC2CC23CCCc2ccccc23)cc1` (stereo not drawn) [B107], the MIC in assay [1] (setting [6]), in assay [2] (WT H37Rv MTB), in assay [3] (setting [4]) and in assay [3] (setting [5]) was over 150 µM throughout.
Turning to `CCNC(=O)COc1ccccc1CNC(C)CC1CCCCC1` (stereo not drawn) [B239], the MIC in assay [1] (setting [6]) is over 150 µM; in assay [2] (WT H37Rv MTB), over 150 µM; in assay [3] (setting [7]), 20 µM (≈ 6.65 µg/mL); in assay [3] (setting [8]), over 150 µM.
For the molecule `CC(CC1CCCCC1)NCc1ccccc1OC1CCCC1` (stereo not drawn) [B288], the MIC is 150 µM (≈ 47.3 µg/mL) in assay [1] (setting [6]), 91 µM (≈ 28.7 µg/mL) in assay [2] (WT H37Rv MTB), 3 µM (≈ 0.947 µg/mL) in assay [3] (setting [7]) and over 150 µM in assay [3] (setting [8]).
As to `c1cc(CNCCC2CCCCC2)c2c(c1)OCO2` [B374], the MIC was over 150 µM in assay [1] (setting [6]), 150 µM (≈ 39.2 µg/mL) in assay [2] (WT H37Rv MTB), over 150 µM in assay [3] (setting [7]) and over 150 µM in assay [3] (setting [8]).
As for `CC(CC1CCCCC1)NCc1ccccc1OCc1cn(C)nn1` (stereo not drawn) [B300], the MIC in assay [1] (setting [6]) is over 150 µM; in assay [2] (WT H37Rv MTB) it was over 150 µM; in assay [3] (setting [7]) it was 12 µM (≈ 4.11 µg/mL); in assay [3] (setting [8]), over 150 µM.
With `CC(CC1CCCCC1)NCc1ccccc1OCc1ccccc1C1CC1` (stereo not drawn) [B462, 1-cyclohexyl-N-(2-((2-cyclopropylbenzyl)oxy)benzyl)propan-2-amine], the MIC was 33 µM (≈ 12.5 µg/mL) in assay [1] (setting [6]), 10 µM (≈ 3.78 µg/mL) in assay [2] (WT H37Rv MTB), 4 µM (≈ 1.51 µg/mL) in assay [3] (setting [4]) and over 150 µM in assay [3] (setting [5]).
Regarding `c1ccc(CNCCC2CCNCC2)cc1` [B215, N-benzyl-2-(piperidin-4-yl)ethanamine hydrochloride], the MIC is over 300 µM in assay [1] (setting [6]), over 150 µM in assay [2] (WT H37Rv MTB), over 300 µM in assay [3] (setting [7]) and over 300 µM in assay [3] (setting [8]).
As for `c1ccc(CNC(CC2CCCCC2)c2ccccc2)cc1` (stereo not drawn) [B169, N-benzyl-2-cyclohexyl-1-phenylethanamine hydrochloride], the MIC in assay [1] (setting [6]) was over 300 µM; in assay [2] (WT H37Rv MTB), over 150 µM; in assay [3] (setting [4]), 74 µM; in assay [3] (setting [5]) it was over 300 µM.
As for `C1=C(CCNCc2ccccc2)CCCCC1` [B71], the MIC in assay [1] (setting [6]) is over 150 µM; in assay [2] (WT H37Rv MTB), 91 µM (≈ 20.9 µg/mL); in assay [3] (setting [4]), 90 µM (≈ 20.6 µg/mL); in assay [3] (setting [5]), 150 µM (≈ 34.4 µg/mL).
With `CC(CC1CCCCC1)NCc1ccccc1OCc1nnn(C)n1` (stereo not drawn) [B322], the MIC in assay [1] (setting [6]) was 150 µM (≈ 51.5 µg/mL); in assay [2] (WT H37Rv MTB), over 150 µM; in assay [3] (setting [7]), 4 µM (≈ 1.37 µg/mL); in assay [3] (setting [8]) it was 150 µM (≈ 51.5 µg/mL).
